# Test results from patent US12258377B2 (Scancell Limited, priority 2012, dated 2025).
# Ends that are not written are not given here.
# Assays:
# splenocytes [1] = assay: Ex vivo elispot assay on splenocytes of immunised HLA-DR4 transgenic mice; assay type: in vivo; details: 25 μg peptide with CpG and MPLA day 0, peptide 5 μM
# Description: (§1) C57BL/6 mice (Charles River, UK), HLA-DR4 mice (Taconic, USA), HHDII mice (Pasteur institute, France) and HHDII/DRI mice (Pasteur institute, France) were used, aged between 8 and 12 weeks, and cared for by the staff at Nottingham Trent University. All work was carried out under a Home Office project license. Peptides were dissolved in 10% Dimethylformamide to 1 mg/ml and then emulsified (a series of dilutions) with different adjuvants: CpG and MPLA 6 μg/mouse of each (Invivogen, UK), Incomplete Freund's […] (Sigma, UK), and GMCSF 10 μg/mouse (Peprotech, UK). Peptides (25 μg/mouse) were injected subcutaneously at the base of the tail. DNA (1 μg/mouse) was coated onto 1.0 μm gold particles (BioRad, Hemel Hempstead, UK) using the manufacturer's instructions and administered intradermally by genegun (BioRad). Homspera (10 nM/mouse) (PeptideSynthetics, UK) was injected intradermally with genegun immunisation. Mice were immunized at either day 0 for peptide immunisation or days, 0, 7, and 14 for peptide and genegun immunisation. Spleens were removed for analysis at day 14 for peptide and day 20 for peptide or genegun immunisation unless stated otherwise. 400 μg Anti-CD25 antibody (PC61) was administered i.p. in saline 3 days prior to the immunisation. 200 μg Anti-CTLA-4 antibody (UC 10-4F, 10-11) was administered i.p. in saline at day 7 and 14 with either genegun or peptide immunisation.
# (§2) Elispot assays were performed using murine IFNγ, IL-17 and IL-10 capture and detection reagents according to the manufacturer's instructions (Mabtech, Sweden). In brief, anti-IFNγ, IL-17 and IL-10 antibodies were coated onto wells of 96-well Immobilin-P plate. Synthetic peptides (at a variety of concentrations) and 5×10^5 per well splenocytes were added to the wells of the plate in triplicate. Tumour target cells were added where relevant at 5×10^4/well in triplicate and plates incubated for 40 hrs at 37° C. After incubation, captured IFNγ, […], IL-17 and IL-10 were detected by biotinylated anti-IFNγ, IL-17 and IL-10 antibodies and developed with a strepatavidin alkaline phosphatase and chromogenic substrate. Spots were analysed and counted using an automated plate reader (Cellular Technologies Ltd). Functional avidity was calculated as the concentration mediating 50% maximal effector function using a graph of effector function versus peptide concentration.
# PBMC = assay: Proliferation assay of PBMC from cancer patients; assay type: cell-based, human; details: PBMC stimulated with 10 μg/ml peptide for 4, 7 and 11 days, 3H-thymidine
# Description: PBMC were isolated from freshly drawn heparinised blood by Ficol-Hypaque (Sigma) gradient centrifugation. PBMC (1.5×10^6 cells/well) were stimulated with single peptides (final concentration 10 μg/ml) in RPMI containing 5% pooled autologous human serum, 2 mM glutamine, 20 mM HEPES and Penicillin-streptomycin (1%) in a final volume of 2 ml. Stimulation with purified protein derivative, PPD (final concentration 10 μg/ml) served as a positive control for the proliferative capacity of PBMC. As a negative control PBMC were incubated with medium alone. The PBMC were cultured at 37° C. in an atmosphere of 5% CO2 for 4, 7 and 11 days. To assess proliferation at these times points 100 μl in triplicate from each culture was aliquoted into a round bottom well of a 96 well plate and ^3H-thymidine added (0.0185 MBq/well) and incubated at 37° C. for a further 8 hours. The cultures were harvested onto unifilter plates and incorporation of ^3H-thymidine was determined by β-scintillation counting. The results were assessed by calculating the stimulation index (SI) as the ratio of the mean of counts per minute (cpm) of epitope-stimulated to the mean of unstimulated cultures. The proliferative assay was considered positive when SI >2.5.
# [2] = tested on: T2 or B16HHD tumour cells; assay: 51Cr-release assay, vim 65 cit CTL lines against HLA-A2 positive target cells; assay type: cell-based; details: peptide pulsed HLA-A2 positive target cells
# Description: Target cells were labelled for 1 hr with 1.85 MBq sodium (^51Cr) chromate (Amersham, Essex, UK) with or without 10 μg/ml peptide. Post incubation they were washed 3 times in RPMI. Targets 5×10^3/well of a 96-well V-bottomed plates were set up and co incubated with different densities of effector cells in a final volume of 200 μl of RPMI, 10% FCS (Sigma), 20 mM HEPES buffer, 2 mM L-glutamine, 100 units/ml penicillin and 100 μg/ml streptomycin. After 20 hrs at 37° C., 50 μl of supernatants were removed from each well and transferred to a Lumaplate (Packard, Rigaweg, the Netherlands). Plates were read on a Topcount Microplate Scintillation Counter (Packard). Percentage specific lysis was calculated using the following formula: specific lysis=100×[(experimental release−spontaneous release)/(maximum release−spontaneous release)].
# EL4 HHD cells = assay: IFNg elispot of splenocytes against EL4 HHD tumour target cells; assay type: cell-based, HLA-A2/DR1 transgenic mice; details: EL4 HHD over HLA mismatched B16 cells
# Description: as §2
# splenocytes [3] = assay: Ex vivo elispot assay on splenocytes of immunised HLA-DR1 / HLA-A2/DR1 (HHDII/DR1) transgenic mice; assay type: in vivo; details: HLA-A2/DR1 mice
# Description: as §1, §2
# splenocytes [4] = assay: as above; assay type: in vivo; details: stimulation with citrullinated peptide; HLA-A2/DR1 mice
# [5] = 25 μg citrullinated peptide day 0, day 14
sequence,measurement,setting,value
"SAVRLRSSVPGVR [citrullinated vim 65 peptide] (not fully specified; also: citrullinated, positions not given here)","IL-17 elispot response to citrullinated peptide, mean",splenocytes [1]; day 14,550 /million splenocytes
same,"IL-17 elispot response to wild type peptide, mean",splenocytes [1]; day 14,no responses
same,"IFNγ elispot response to citrullinated peptide, mean",splenocytes [1]; day 14 splenocytes,550 /million splenocytes
same,"IFNγ elispot response to wild type peptide, mean",splenocytes [1]; day 14 splenocytes,no responses
same,patients showing a proliferative response (SI >2.5),PBMC; listed as citrullinated vim 65-77,4/9
same,patients showing a proliferative response (SI >2.5),PBMC; listed as vim 65 cit,three of eight
same,cytotoxicity (chromium release),[2],cytotoxicity of peptide pulsed HLA-A2 positive target cells
same,recognition of tumour target cells ex vivo,EL4 HHD cells,good recognition of transgenic HLA-A2 engineered EL4 cell line (EL4 HHD)
same,IFNγ elispot response to citrullinated peptide,splenocytes [3]; [5],high frequency IFNγ responses
same,IFNγ elispot response to wild type peptide,splenocytes [3]; [5],some cross reactivity to the wild type peptide
same,IL-10 elispot response to citrullinated peptide,splenocytes [3]; [5],Low frequency IL-10 responses
same,IFNγ response with blockade of MHC class II,splenocytes [3]; L243 HLA-DR blocking antibody,does not eliminate the citrullinated peptide specific response
same,phenotype of cells producing IFNγ and TNFa (intracellular cytokine staining),splenocytes [4],CD8 positive
